Experimental data: US9301961B2, “Autoimmune and inflammatory disorder therapy” (Katholieke Universiteit Leuven, K.U. Leuven R&D, priority 2011, dated 2016)

Experiments:
RIOK2 = target: T1, RIOK2 (Homo sapiens, UniProt Q9BVS4); assay: Kinase-tagged phage competition binding assay (qPCR), 382-kinase library
T1 construct: made in house; host or cells: E. coli BL21-derived host (T7 phage) or HEK-293

TESK1 = target: T2, TESK1 (Homo sapiens, UniProt Q15569); assay: as above
T2 construct: made in house; host or cells: E. coli BL21-derived host (T7 phage) or HEK-293
T2 sequence (Q15569 whole entry): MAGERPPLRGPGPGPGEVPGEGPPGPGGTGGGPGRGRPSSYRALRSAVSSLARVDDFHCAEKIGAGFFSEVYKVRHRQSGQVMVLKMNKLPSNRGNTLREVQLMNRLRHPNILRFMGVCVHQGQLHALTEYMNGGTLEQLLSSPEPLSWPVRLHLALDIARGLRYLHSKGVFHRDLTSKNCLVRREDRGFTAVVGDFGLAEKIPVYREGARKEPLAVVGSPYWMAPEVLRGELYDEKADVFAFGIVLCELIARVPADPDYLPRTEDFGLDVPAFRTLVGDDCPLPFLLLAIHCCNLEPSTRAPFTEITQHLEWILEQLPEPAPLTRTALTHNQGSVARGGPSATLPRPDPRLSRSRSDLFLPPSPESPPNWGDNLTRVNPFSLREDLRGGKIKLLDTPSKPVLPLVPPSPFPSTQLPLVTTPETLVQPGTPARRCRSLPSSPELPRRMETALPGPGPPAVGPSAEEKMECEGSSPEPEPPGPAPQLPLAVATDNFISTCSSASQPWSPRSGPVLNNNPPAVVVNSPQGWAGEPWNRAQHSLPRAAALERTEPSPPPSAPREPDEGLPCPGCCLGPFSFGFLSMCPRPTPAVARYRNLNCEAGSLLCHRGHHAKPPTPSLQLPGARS

LOK (h) = target: T3, LOK (h) (Homo sapiens, UniProt O94804); assay: Commercial kinase activity assay (Millipore, 33P-ATP filter); type: biochemical; conditions: 10 μM test compound
T3 construct: purchased Millipore
T3 sequence (O94804 whole entry): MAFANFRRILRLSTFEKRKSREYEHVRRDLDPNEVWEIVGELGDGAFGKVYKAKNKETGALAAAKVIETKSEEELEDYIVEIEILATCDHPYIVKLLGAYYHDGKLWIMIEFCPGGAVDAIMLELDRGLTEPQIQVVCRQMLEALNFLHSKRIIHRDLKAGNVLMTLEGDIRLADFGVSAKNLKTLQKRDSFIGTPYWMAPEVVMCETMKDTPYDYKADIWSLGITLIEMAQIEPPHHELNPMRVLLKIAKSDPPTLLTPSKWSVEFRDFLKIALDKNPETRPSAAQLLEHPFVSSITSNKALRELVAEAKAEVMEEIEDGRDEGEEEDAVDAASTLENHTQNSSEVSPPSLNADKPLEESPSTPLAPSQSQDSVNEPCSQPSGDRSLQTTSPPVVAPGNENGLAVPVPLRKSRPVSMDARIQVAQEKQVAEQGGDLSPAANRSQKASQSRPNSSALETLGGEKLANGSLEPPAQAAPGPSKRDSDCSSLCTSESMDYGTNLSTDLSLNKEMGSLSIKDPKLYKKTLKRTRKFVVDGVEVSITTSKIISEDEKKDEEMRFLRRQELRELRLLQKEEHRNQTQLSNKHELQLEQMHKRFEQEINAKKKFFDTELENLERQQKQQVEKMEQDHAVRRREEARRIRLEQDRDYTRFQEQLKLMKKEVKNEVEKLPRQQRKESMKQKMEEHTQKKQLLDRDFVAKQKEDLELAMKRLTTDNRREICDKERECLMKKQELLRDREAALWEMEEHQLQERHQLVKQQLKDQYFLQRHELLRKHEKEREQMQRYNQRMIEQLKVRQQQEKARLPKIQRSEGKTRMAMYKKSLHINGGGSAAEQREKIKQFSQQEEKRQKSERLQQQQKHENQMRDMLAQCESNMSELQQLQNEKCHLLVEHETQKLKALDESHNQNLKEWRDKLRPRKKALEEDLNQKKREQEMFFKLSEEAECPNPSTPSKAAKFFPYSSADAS
Procedure: LOK (h) was incubated with 8 mM MOPS pH 7.0, 0.2 mM EDTA, 250 μM […], 10 mM MgAcetate and [γ-^33P-ATP] (specific activity approx. 500 cpm/pmol, concentration as required). The reaction was initiated by the addition of the MgATP mix. After incubation for 40 minutes at room temperature, the reaction was stopped by the addition of 3% phosphoric acid solution. 10 μL of the reaction was then spotted onto a P30 filtermat and washed three times for 5 minutes in 75 mM phosphoric acid and once in methanol prior to drying and scintillation counting. PI3K p110β/p85α (h) PI3K (p110β/p85α) (h) was incubated in assay buffer containing 10 μM phosphatidylinositol-4,5-bisphosphate and MgATP (concentration as required). The reaction was initiated by the addition of the MgATP mix. After incubation for 30 minutes at room temperature, the reaction was stopped by the addition of stop solution containing EDTA and biotinylated phosphatidylinositol-3,4,5-trisphosphate. Finally, detection buffer was added, which contains europium-labelled anti-GST monoclonal antibody, GST-tagged GRP1 PH domain and streptavidinallophycocyanin. The plate was then read in time-resolved fluorescence mode and the homogenous time-resolved fluorescence (HTRF®) signal determined according to the formula HTRF=10000×(Em665nm/Em620 nm). YSK4 (h) YSK4 (h) was incubated with 8 mM MOPS pH 7.0, 0.2 mM EDTA, 250 […], 10 mM MgAcetate and [γ-^33P-ATP] (specific activity approx. 500 cpm/pmol, concentration as required). The reaction was initiated by the addition of the MgATP mix. After incubation for 40 minutes at room temperature, the reaction was stopped by the addition of 3% phosphoric acid solution. 10 μL of the reaction was then spotted onto a P30 filtermat and washed three times for 5 minutes in 75 mM phosphoric acid and once in methanol prior to drying and scintillation counting. PI4KA (PI4K alpha) The 2× PI4KA (PI4K alpha)/PI Lipid Kinase Substrate mixture was prepared in 20 mM Tris, pH 7.5, 0.4% Triton X-100, 5 mM MgCl2, 0.5 mM EGTA. The final 10 μL Kinase Reaction consisted of 75-300 ng PI4KA (PI4K alpha) and 100 μM PI Lipid Kinase Substrate in 7.5 mM HEPES, 10 mM Tris, pH 7.5, 0.2% Triton X-100, 2.5 mM MgCl2, 0.25 mM EGTA. After the 1 hour Kinase Reaction incubation, 5 μL of Detection Mix consisting of a europium labeled anti-ADP antibody, an Alexa Fluor® 647 labeled ADP tracer, and EDTA (to stop the kinase reaction) was added to the assay well. ADP formed by the kinase reaction (in the absence of an inhibitor) displaced the Alexa Fluor® 647 labeled ADP tracer from the antibody, resulting in a decrease in the TR-FRET signal. […] PI4KB (PI4K beta) The 2× PI4KB (PI4K beta)/PI Lipid Kinase Substrate mixture was prepared in 50 mM HEPES pH 7.5, 0.1% CHAPS, 1 mM EGTA, 4 mM MgCl2. […]

[1] = 10 μM compound, read-out: % Inhibition of substrate binding
[2] = stated for the 8 kinases of Table 1

T1 sequence (Q9BVS4 whole entry): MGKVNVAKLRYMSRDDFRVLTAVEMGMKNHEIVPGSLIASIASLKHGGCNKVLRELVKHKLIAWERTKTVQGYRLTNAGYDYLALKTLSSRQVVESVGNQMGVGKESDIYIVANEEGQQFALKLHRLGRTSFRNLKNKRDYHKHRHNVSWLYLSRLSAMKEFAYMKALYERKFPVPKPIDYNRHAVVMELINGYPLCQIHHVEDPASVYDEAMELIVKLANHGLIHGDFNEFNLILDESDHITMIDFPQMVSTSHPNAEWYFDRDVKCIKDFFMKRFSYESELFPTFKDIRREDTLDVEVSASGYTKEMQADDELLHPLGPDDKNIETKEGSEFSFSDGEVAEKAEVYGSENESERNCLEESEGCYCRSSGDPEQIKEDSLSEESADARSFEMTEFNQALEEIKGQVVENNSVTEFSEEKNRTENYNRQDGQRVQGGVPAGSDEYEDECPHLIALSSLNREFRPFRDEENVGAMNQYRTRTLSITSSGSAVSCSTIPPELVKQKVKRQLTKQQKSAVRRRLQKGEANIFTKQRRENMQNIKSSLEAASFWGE

Nc1nc(N2CCN(C(=O)COc3ccc(Cl)cc3)CC2)c2nc(-c3cccnc3)sc2n1 [formula (1), 5-amino-7-[4-(4-chlorophenoxyacetyl)piperazin-1-yl]-2-(pyridin-3-yl)thiazolo[5,4-d]pyrimidine]
inhibition at 10 µM (RIOK2; [1]): 94%
IC50 (RIOK2; [2]): < 10 µM
inhibition at 10 µM (TESK1; [1]): 51%
IC50 (TESK1; [2]): < 10 µM
Kinase activity (LOK (h)): 117 percentage of control
